Data published in publication PMC6152717, “Novel Tacrine-Scutellarin Hybrids as Multipotent Anti-Alzheimer’s Agents: Design, Synthesis and Biological Evaluation” (Molecules : A Journal of Synthetic Chemistry and Natural …, 2017).
Marks after values point to notes of the source that are not given here.

Experiments:
[1] = system: AChE from human erythrocytes (hAChE); details: read-out: AChE IC50 ± SEM; cited from earlier work
[2] = system: Electric eel AChE (EeAChE); details: cited from earlier work
[3] = printed in DPPH EC50 column; cited from earlier work
[4] = system: BChE from equine serum (eqBChE); details: read-out: BChE IC50 ± SEM; cited from earlier work
[5] = molecular target: T1, human butyrylcholinesterase (hBChE) (Homo sapiens, UniProt P06276); assay: biochemical; details: BChE from human plasma; mean of three independent measurements ± SEM
T1 construct: Human plasma BChE (EC 3.1.1.8); purchased Sigma-Aldrich; host or cells: human plasma
T1 sequence (P06276 29-602): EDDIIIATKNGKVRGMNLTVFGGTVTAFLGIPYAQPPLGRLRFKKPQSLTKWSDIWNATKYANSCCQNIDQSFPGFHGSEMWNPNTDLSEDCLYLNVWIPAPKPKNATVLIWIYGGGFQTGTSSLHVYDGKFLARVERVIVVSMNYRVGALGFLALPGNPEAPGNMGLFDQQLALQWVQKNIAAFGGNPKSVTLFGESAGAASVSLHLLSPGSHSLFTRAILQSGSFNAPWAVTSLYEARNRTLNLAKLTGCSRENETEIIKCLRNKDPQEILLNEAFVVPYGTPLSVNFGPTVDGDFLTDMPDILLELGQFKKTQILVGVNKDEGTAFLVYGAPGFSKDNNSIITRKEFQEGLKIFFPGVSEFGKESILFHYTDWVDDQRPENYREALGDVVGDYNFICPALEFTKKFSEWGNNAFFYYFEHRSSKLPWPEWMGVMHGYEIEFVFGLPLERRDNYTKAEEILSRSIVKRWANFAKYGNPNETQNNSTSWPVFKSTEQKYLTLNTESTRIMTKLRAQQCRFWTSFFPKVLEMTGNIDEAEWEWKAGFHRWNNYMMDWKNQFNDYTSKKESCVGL
Source text: It is well established that the activity of AChE decreases during the course of AD, while that of BChE increases. Several reports indicate the ability of BChE to compensate the lack of AChE thus continuing in regulation of cholinergic transmission. Therefore, the agents with affinity to both cholinesterases could play a more profound role in the AD therapy.
(§1) Human erythrocyte hemolyzate, prepared from blood samples, was applied as a source of AChE (EC 3.1.1.7). […] The erythrocytes were washed three times with phosphate buffer (PB; 0.1 M, pH 7.4) and then hemolyzed in PB (0.01 M, Ph 7.4) in ration 1:10 (w/w), frozen and kept under −80 °C before use. Human plasma BChE (EC 3.1.1.8), 5,5′-dithiobis(2-nitrobenzoic acid) (Ellman’s reagent, DTNB), phosphate buffer solution (PBS, pH 7.4), acetylthiocholine iodide (ATCh), and butyrylthiocholine (BTCh) were purchased from Sigma-Aldrich. Polystyrene Nunc 96-well microplates with flat bottom shape (ThermoFisher Scientific, Bremen, Germany) were used for the measuring purposes. All of the assays were carried out in 0.1 M KH2PO4/K2HPO4 buffer, pH 7.4. […] The assay medium (100 μL) consisted of 40 μL of 0.1 M PBS (pH = 7.4), 20 μL of 0.01 M DTNB, 10 μL of cholinesterase, 10 µL of tested compound and 20 μL of 0.01 M substrate (ATCh or BTCh iodide solution). Assayed solutions of target compounds (10 μL, 10^−^3–10^−^9 M) were preincubated with enzyme for 5 min. The reaction was initiated by addition of 20 μL of substrate. […] Each concentration was assayed in triplicate. Percentage of inhibition (I) was calculated from the measured data as follows Equation (1): (1) I=(1−ΔAi/ΔA0)×100 [%]
(§2) ΔAi indicates absorbance change provided by cholinesterase exposed to tested compound. ΔA0 indicates absorbance change caused by intact cholinesterase, where phosphate bufffer was applied in the same was as the anticholinesterase compound. […] The IC50 values are expressed as a mean ± SEM.

[6] = PAMPA-BBB permeation assay; assay type: in vitro ADME; details: for Prediction of BBB penetration: PAMPA-BBB class; for Papp at 100 μM / BBB crossing prediction: PAMPA-BBB; for Papp at 100 μM: PBS pH 7.4, 100 μM donor, mean ± SD of three independent experiments, read-out: Pe; for BBB crossing prediction: passive diffusion model
Protocol: The parallel artificial membrane permeation assay (PAMPA) has been used based on reported protocol. The filter membrane of the donor plate was coated with PBL (Polar Brain Lipid, Avanti, Alabaster, AL, USA) in dodecane (4 μL of 20 mg/mL PBL in dodecane) and the acceptor well was filled with 300 μL of PBS pH 7.4 buffer (VD). Tested compounds were dissolved first in DMSO and then diluted with PBS pH 7.4 to reach the final concentration 100 μM in the donor well. […] 300 μL of the donor solution was added to the donor wells (VA) and the donor filter plate was carefully put on the acceptor plate so that coated membrane was “in touch” with both donor solution and acceptor buffer. Test compound diffused from the donor well through the lipid membrane (Area = 0.28 cm^2) to the acceptor well. The concentration of the drug in both donor and the acceptor wells was assessed after 3, 4, 5 and 6 h of incubation in quadruplicate using the Synergy HT UV plate reader at the maximum absorption wavelength of each compound. Concentration of the compounds was calculated from the standard curve and expressed as the permeability (Pe) according to Equation (2): (2) logPe=log {C×−ln(1−[drug]acceptor/[drug]equilibrium)} where C = (VD×VA/(VD+VA)×Area×time)

DPPH antioxidant assay = details: mean of at least three experiments; 30 min, methanol
Source text: The free phenolic group of 1 is presumably able to easily undergo keto-enol tautomerism which has previously been postulated to be responsible for radical scavenging. Within the family of 6-Cl-THA-scutellarin hybrids, all the phenolic hydroxyls of scutellarin moiety are hindered by methyl containing methoxy groups and thus unable to exert such an effect under in vitro conditions. However, the antioxidant activity of K1383–K1389 in vivo may occur due to metabolism of the compound whereby demethylation of one or more methoxy groups can take place. This is known to be the case of 7-methoxytacrine and its major metabolite found in vivo, 7-hydroxytacrine.
DPPH, methanol, and Trolox (as reference standard) were purchased from Sigma-Aldrich. Polystyrene Nunc 96-well microplates with flat bottom shape (Thermo Fisher Scientific) were used for measuring purposes. All of the assays were carried out in methanol. DPPH solution was prepared at 0.2 mM concentration. […] The reaction time constituted 30 min. The antioxidant activity was determined by measuring the […] in absorbance at 517 nm at laboratory temperature using Synergy 2 multimode microplate reader. Each concentration was tested in triplicate. The software GraphPad Prism version 5 for Windows was used for statistical data evaluation.

[7] = molecular target: T2, human acetylcholinesterase (hAChE) (Homo sapiens, UniProt P22303); assay: biochemical; details: AChE from human erythrocytes; mean of three independent measurements ± SEM
T2 construct: Human erythrocyte hemolyzate, prepared from blood samples, was applied as a source of AChE (EC 3.1.1.7); from tissue; host or cells: human erythrocytes (hemolyzate from blood of healthy volunteers)
T2 sequence (P22303 32-617 isoform P22303-2 limits assumed): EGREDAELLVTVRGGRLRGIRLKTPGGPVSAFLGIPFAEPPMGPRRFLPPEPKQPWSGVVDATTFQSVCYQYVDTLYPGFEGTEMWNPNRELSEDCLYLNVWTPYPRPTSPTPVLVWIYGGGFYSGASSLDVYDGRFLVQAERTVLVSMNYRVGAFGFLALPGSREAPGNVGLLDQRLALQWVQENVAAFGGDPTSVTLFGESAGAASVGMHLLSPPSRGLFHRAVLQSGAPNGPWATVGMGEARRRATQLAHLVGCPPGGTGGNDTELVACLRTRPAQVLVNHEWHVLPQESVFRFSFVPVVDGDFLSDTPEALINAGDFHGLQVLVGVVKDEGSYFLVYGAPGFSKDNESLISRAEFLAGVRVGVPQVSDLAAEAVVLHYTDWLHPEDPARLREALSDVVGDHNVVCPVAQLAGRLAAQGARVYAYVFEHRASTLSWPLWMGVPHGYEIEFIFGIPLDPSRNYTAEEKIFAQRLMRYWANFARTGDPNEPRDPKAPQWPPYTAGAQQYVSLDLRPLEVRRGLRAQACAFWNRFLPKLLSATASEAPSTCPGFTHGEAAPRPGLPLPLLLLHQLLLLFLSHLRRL
Protocol: as §1, §2

HepG2 cells = assay: Hepatotoxicity on HepG2 cells, MTT assay; assay type: cell-based; details: for cytotoxicity compared to reference 6-Cl-THA: HepG2, 24 h incubation; for IC50: Homo sapiens, HepG2, MTT, 24 h incubation, mean ± SEM of three independent experiments
Protocol: Hepatotoxicity of tested compounds was evaluated using the HepG2 cell line originally from human liver hepatocellular carcinoma (ATCC, Manassas, VA, USA). These cells were plated at density 17 × 10^3 per well in a 96-well plate in Dulbecco’s Modified Eagle’s Medium (DMEM; Gibco, Langley, OK, USA) with 10% FBS (Gibco) and were left to attach overnight. […] Stock solutons of tested compounds were prepared in DMSO (Sigma Aldrich, Prague, Czech Republic) and then diluted in DMEM medium. […] Subsequently, the medium was aspirated and 100 μL MTT solution (0.5 mg/mL) in serum-free DMEM medium was added to each well. Cells were then incubated for 1 h. The medium was then discarded and purple crystals of MTT formazan were dissolved in 100 μL DMSO under shaking. The absorbance was measured with a microplate reader (BioTek) at a minimum wavelength of 570 nm. The IC50 values were calculated using four parametric nonlinear regression with statistic software GraphPad Prism. Data were obtained from three independent experiments performed in triplicates.

hAChE = molecular target: T3, hAChE (Homo sapiens, UniProt P22303); assay: Kinetic study of AChE inhibition (Lineweaver-Burk, nonlinear regression); assay type: biochemical
T3 construct: Human erythrocyte hemolyzate, prepared from blood samples, was applied as a source of AChE (EC 3.1.1.7); from tissue; host or cells: human erythrocytes (hemolyzate from blood of healthy volunteers)
T3 sequence (P22303 32-617 isoform P22303-2 limits assumed): as above
Protocol: To determine the interaction of K1383 with hAChE, a kinetic study was carried out. Enzyme rate curves were obtained at several substrate concentrations of the inhibitor.
Inhibitors bind reversibly to both free AChE and AChE-substrate complex with equal affinity (Ki = Ki′) thus affecting the binding of substrate in the active site of enzyme and interacting with its allosteric peripheral anionic site (PAS). Interaction in this site causes conformational changes of the enzyme, including its active site. Km remained unchanged, while Vmax was reduced at higher concentration of K1383.
The kinetic study of AChE inhibition was performed using Ellman’s method. […] The type of inhibition and corresponding inhibition constant (Ki and Ki′) were determined by the nonlinear regression analysis of the substrate velocity curves at different concentrations of tested compounds. Results for each type model of inhibition (competitive, uncompetitive, mixed and mixed-non-competitive) were compared with sum-of-squares F-test. Lineweaver-Burk (double-reciprocal) plot, used for visualization of the enzyme-inhibitor interactions, was calculated using weighted least-squares regression. All calculations were performed using the GraphPad Prism software.
Figure 2 Steady-state inhibition of AChE hydrolysis of substrate acetylthiocholine (ATCh) by compound K1383 at different concentrations. […]

BChE from rat serum = details: read-out: BChE IC50 ± SEM; cited from earlier work
[8] = system: AChE isolated from rat cortex homogenate; details: cited from earlier work

SMILES	IC50 [5]	Prediction of BBB penetration [6]	Papp at 100 μM [6]	EC50 (DPPH antioxidant assay)	IC50 [7]	IC50 (HepG2 cells)	other results
COc1cc2oc(-c3cccc(OCC(=O)NCCCCCCNc4c5c(nc6cc(Cl)ccc46)CCCC5)c3)cc(=O)c2c(OC)c1OC [Compound 2]	–	–	–	–	–	–	IC50 [1]: 0.0325 ± 0.00025 µM; IC50 ([2]; Electric eel AChE activity, read-out: AChE IC50 ± SEM (converted)): 0.0472 µM; SI (BChE IC50/AChE IC50) ([2]; electric eel AChE vs equine serum BChE): 20.5; ORAC-FL antioxidant power [3]: 0.47 ± 0.03 ^a µM of Trolox/µM of tested compound; IC50 [4]: 0.9689 ± 0.00826 µM
COc1cc2oc(-c3ccc(NCCCCCCCCNc4c5c(nc6cc(Cl)ccc46)CCCC5)cc3)cc(=O)c2c(OC)c1OC [Compound K1389]	2.21 ± 0.13 µM	CNS+ (high BBB permeation predicted, Pe × 10^−6 cm/s > 4.0)	8.1 ± 3.1 ×10⁻⁶ cm/s	> 500 µM	0.0223 ± 0.0007 µM	> 16 µM	BBB crossing prediction [6]: potential to cross the BBB; cytotoxicity compared to reference 6-Cl-THA (HepG2 cells): slightly suppressed cytotoxicity
Cc1c(C)c2c(c(C)c1O)CCC(C)(C(=O)O)O2 (stereo not drawn) [trolox, Trolox, reference compound]	–	–	–	16.2 ± 0.42 µM	–	–	–
COc1cc2oc(-c3ccc(NCCCCCCCNc4c5c(nc6cc(Cl)ccc46)CCCC5)cc3)cc(=O)c2c(OC)c1OC [Compound K1388]	2.81 ± 0.11 µM	CNS+ (high BBB permeation predicted, Pe × 10^−6 cm/s > 4.0)	4.92 ± 0.02 ×10⁻⁶ cm/s	> 500 µM	0.0241 ± 0.0009 µM	> 32 µM	BBB crossing prediction [6]: potential to cross the BBB; cytotoxicity compared to reference 6-Cl-THA (HepG2 cells): slightly suppressed cytotoxicity
Nc1c2c(nc3cc(Cl)ccc13)CCCC2 [Compound 6-Cl-THA, 6-Chlorotacrine, reference compound]	–	CNS+ (high BBB permeation predicted, Pe × 10^−6 cm/s > 4.0)	5 ± 0.45 ×10⁻⁶ cm/s	> 100 µM	–	7.13 ± 0.11 µM	–
COc1cc2oc(-c3ccc(NCCNc4c5c(nc6cc(Cl)ccc46)CCCC5)cc3)cc(=O)c2c(OC)c1OC [Compound K1383]	1.21 ± 0.07 µM	CNS± (BBB permeation uncertain, Pe × 10^−6 cm/s from 4.0 to 2.0)	2.88 ± 0.1 ×10⁻⁶ cm/s	> 500 µM	0.00163 ± 0.00013 µM	3.4 ± 1.05 µM	type of inhibition (hAChE; nonlinear regression analysis, p < 0.05): mixed, non-competitive; Ki (hAChE; substrate ATCh 0.156–1.250 mM, Ki = Ki′): 0.00275 ± 0.00032 µM
COc1cc2oc(-c3ccc(NCCCCCNc4c5c(nc6cc(Cl)ccc46)CCCC5)cc3)cc(=O)c2c(OC)c1OC [Compound K1386]	0.934 ± 0.045 µM	CNS± (BBB permeation uncertain, Pe × 10^−6 cm/s from 4.0 to 2.0)	3.93 ± 1 ×10⁻⁶ cm/s	> 500 µM	0.0267 ± 0.001 µM	3.89 ± 1.08 µM	–
CCN(CC)c1cccc(-c2cc(=O)c3c(O)c(OC)c(OC)cc3o2)c1 [Compound 1]	–	–	–	–	–	–	IC50 (BChE from rat serum): 22.6 ± 0.22 µM; ORAC-FL antioxidant power [3]: 1.3 ± 0.02 ^a µM of Trolox/µM of tested compound; IC50 ([8]; AChE isolated from rat cortex homogenate, read-out: AChE IC50 ± SEM): 0.57 ± 0.02 µM; SI (BChE IC50/AChE IC50) ([8]; rat AChE vs rat BChE): 39.7
COc1cc2oc(-c3ccc(NCCCCNc4c5c(nc6cc(Cl)ccc46)CCCC5)cc3)cc(=O)c2c(OC)c1OC [Compound K1385]	8.69 ± 0.04 µM	CNS± (BBB permeation uncertain, Pe × 10^−6 cm/s from 4.0 to 2.0)	2.6 ± 0.55 ×10⁻⁶ cm/s	> 500 µM	0.00515 ± 0.00018 µM	3.29 ± 0.82 µM	–
COc1cc2oc(-c3ccc(NCCCCCCNc4c5c(nc6cc(Cl)ccc46)CCCC5)cc3)cc(=O)c2c(OC)c1OC [Compound K1387]	6.46 ± 0.3 µM	CNS± (BBB permeation uncertain, Pe × 10^−6 cm/s from 4.0 to 2.0)	3.31 ± 0.38 ×10⁻⁶ cm/s	> 500 µM	0.031 ± 0.0015 µM	7.76 ± 1.47 µM	–
COc1cc2oc(-c3ccc(NCCCNc4c5c(nc6cc(Cl)ccc46)CCCC5)cc3)cc(=O)c2c(OC)c1OC [Compound K1384]	0.174 ± 0.007 µM	CNS+ (high BBB permeation predicted, Pe × 10^−6 cm/s > 4.0)	5.01 ± 2.2 ×10⁻⁶ cm/s	> 500 µM	0.0019 ± 0.0001 µM	5.77 ± 1.68 µM	BBB crossing prediction [6]: potential to cross the BBB
